# Source: patent US6544991B2, “Compositions and methods for treating bacterial infections” (priority 2000, dated 2003)
# Where two headings read alike, the source gives them in different places.
# Assays:
# VRSA strains = test: MIC by agar dilution or microbroth dilution method (NCCLS), VRSA strains; assay type: cell-based, Staph. aureus; conditions: VRSA strains (n = 10); for MIC: Staphylococcus aureus
# Description: (§1) Bacterial isolates were obtained from human infections. The isolates were maintained frozen in a liquid nitrogen freezer and plated on Trypticase Soy Agar (TSA) plates supplemented with 5% sheep blood. The quality control strain Staph. aureus 29213 was originally acquired from the American Type Culture Collection (Rockville, Md.).
# (§2) MICs were determined by an agar dilution method or microbroth dilution method recommended by NCCLS. Synergy was assessed by agar dilution checker-board method. Minimal inhibitory concentrations (MICS) for each separate drug were determined. The fractional inhibitory concentration (FIC) values were calculated by the MIC of Drug A (e.g., sulbactam/ampicillin) and Drug B (e.g., linezolid or arbekacin) in combination/MIC of Drug A or B alone. The FIC index was determined according to the following formula: [formula]
# In total, 48 MRSA strains were tested, including ten VRSA strains isolated from five different countries in the world, 33 MRSA strains isolated from ten Japanese university hospitals, and five MRSA type strains from Juntendo University, Department of Bacteriology, Tokyo, Japan.
# Staph. aureus 29213 = test: MIC, quality control strain; assay type: cell-based; conditions: for MIC: Staphylococcus aureus, read-out: MIC Values
# Description: as §1, §2
# MRSA strains = test: MIC by agar dilution or microbroth dilution method (NCCLS); assay type: cell-based, Staph. aureus; conditions: for MIC: Staphylococcus aureus
# Description: as §1, §2
# [1] = ATCC29213, strain ATCC 29213, control sample (Ex. 26)
# [2] = ATCC29213, strain ATCC29213, control sample (Ex. 37)
# [3] = MRSA / NCTC 10442, strain NCTC 10442, read-out: MIC Values
# [4] = MRSA, MRSA strains (n = 38), read-out: MICs 50%
# [5] = MRSA, MRSA strains (n = 38), read-out: MICs 90%
# [6] = MRSA, strain 85/2082, read-out: MIC Values
# [7] = MRSA, strain 99.3700W, read-out: MIC Values
# [8] = MRSA, strain 99.3759V, read-out: MIC Values
# [9] = MRSA, strain AMC 11094, read-out: MIC Values
# [10] = MRSA, strain BM12612(new), read-out: MIC Values
# [11] = MRSA, strain H1, read-out: MIC Values
# [12] = MRSA, strain HIP 5827, read-out: MIC Values
# [13] = MRSA, strain HIP 5836, read-out: MIC Values
# [14] = MRSA, strain HIP 6297, read-out: MIC Values
# [15] = MRSA, strain HIP 7737, read-out: MIC Values
# [16] = MRSA, strain JSCC 340, read-out: MIC Values
# [17] = MRSA, strain JSCC 351, read-out: MIC Values
# [18] = MRSA, strain JSCC 363, read-out: MIC Values
# [19] = MRSA, strain JSCC 381, read-out: MIC Values
# [20] = MRSA, strain JSCC 390, read-out: MIC Values
# [21] = MRSA, strain JSCC 401, read-out: MIC Values
# [22] = MRSA, strain JSCC 413, read-out: MIC Values
# [23] = MRSA, strain JSCC 431, read-out: MIC Values
# [24] = MRSA, strain JSCC 440, read-out: MIC Values
# [25] = MRSA, strain JSCC 451, read-out: MIC Values
# [26] = MRSA, strain JSCC 463, read-out: MIC Values
# [27] = MRSA, strain JSCC 481, read-out: MIC Values
# [28] = MRSA, strain JSCC 490, read-out: MIC Values
# [29] = MRSA, strain JSCC 501, read-out: MIC Values
# [30] = MRSA, strain JSCC 513, read-out: MIC Values
# [31] = MRSA, strain JSCC 531, read-out: MIC Values
# [32] = MRSA, strain JSCC 540, read-out: MIC Values
# [33] = MRSA, strain JSCC 551, read-out: MIC Values
# [34] = MRSA, strain JSCC 563, read-out: MIC Values
# [35] = MRSA, strain JSCC 581 (lacks the mecA gene), read-out: MIC Values
# [36] = MRSA, strain JSCC 590 (lacks the mecA gene), read-out: MIC Values
# [37] = MRSA, strain JSCC 601, read-out: MIC Values
# [38] = MRSA, strain JSCC 640, read-out: MIC Values
# [39] = MRSA, strain JSCC 651, read-out: MIC Values
# [40] = MRSA, strain JSCC 663, read-out: MIC Values
# [41] = MRSA, strain JSCC 681, read-out: MIC Values
# [42] = MRSA, strain JSCC 690, read-out: MIC Values
# [43] = MRSA, strain JSCC 701, read-out: MIC Values
# [44] = MRSA, strain JSCC 713, read-out: MIC Values
# [45] = MRSA, strain JSCC 731, read-out: MIC Values
# [46] = MRSA, strain JSCC 740, read-out: MIC Values
# [47] = MRSA, strain JSCC 751, read-out: MIC Values
# [48] = MRSA, strain JSCC 763, read-out: MIC Values
# [49] = MRSA, strain JSCC 781, read-out: MIC Values
# [50] = MRSA, strain JSCC 870, read-out: MIC Values
# [51] = MRSA, strain LIM 2, read-out: MIC Values
# [52] = MRSA, strain Mu 3, read-out: MIC Values
# [53] = MRSA, strain Mu 50, read-out: MIC Values
# [54] = MRSA, strain N315, read-out: MIC Values
smiles,measurement,setting,value
"NCC[C@H](O)C(=O)N[C@@H]1C[C@H](N)[C@@H](O[C@H]2O[C@H](CN)CC[C@H]2N)[C@H](O)[C@H]1O[C@H]1O[C@H](CO)[C@@H](O)[C@H](N)[C@H]1O [ABK, arbekacin]",MIC,VRSA strains; read-out: MICs 50%,1 µg/mL
same,MIC,VRSA strains; read-out: MICs 90%,4 µg/mL
same,MICs Range,VRSA strains,0.125 to 4 mg/L
same,MIC,Staph. aureus 29213; [1],0.25 µg/mL
same,MIC,Staph. aureus 29213; [2],0.25 µg/mL
same,MICs Range,MRSA strains; MRSA strains (n = 38),0.125 to 4 mg/L
same,MIC,MRSA strains; [3],0.125 µg/mL
same,MIC,MRSA strains; [4],0.5 µg/mL
same,MIC,MRSA strains; [5],2 µg/mL
same,MIC,MRSA strains; [6],0.25 µg/mL
same,MIC,MRSA strains; [7],4 µg/mL
same,MIC,MRSA strains; [8],2 µg/mL
same,MIC,MRSA strains; [9],0.25 µg/mL
same,MIC,MRSA strains; [10],2 µg/mL
same,MIC,MRSA strains; [11],1 µg/mL
same,MIC,MRSA strains; [12],1 µg/mL
same,MIC,MRSA strains; [13],1 µg/mL
same,MIC,MRSA strains; [14],0.125 µg/mL
same,MIC,MRSA strains; [15],0.125 µg/mL
same,MIC,MRSA strains; [16],1 µg/mL
same,MIC,MRSA strains; [17],1 µg/mL
same,MIC,MRSA strains; [18],1 µg/mL
same,MIC,MRSA strains; [19],0.5 µg/mL
same,MIC,MRSA strains; [20],0.5 µg/mL
same,MIC,MRSA strains; [21],0.5 µg/mL
same,MIC,MRSA strains; [22],1 µg/mL
same,MIC,MRSA strains; [23],1 µg/mL
same,MIC,MRSA strains; [24],0.25 µg/mL
same,MIC,MRSA strains; [25],4 µg/mL
same,MIC,MRSA strains; [26],0.5 µg/mL
same,MIC,MRSA strains; [27],1 µg/mL
same,MIC,MRSA strains; [28],0.5 µg/mL
same,MIC,MRSA strains; [29],0.5 µg/mL
same,MIC,MRSA strains; [30],0.25 µg/mL
same,MIC,MRSA strains; [31],0.5 µg/mL
same,MIC,MRSA strains; [32],1 µg/mL
same,MIC,MRSA strains; [33],2 µg/mL
same,MIC,MRSA strains; [34],0.125 µg/mL
same,MIC,MRSA strains; [35],0.5 µg/mL
same,MIC,MRSA strains; [36],0.25 µg/mL
same,MIC,MRSA strains; [37],0.25 µg/mL
same,MIC,MRSA strains; [38],2 µg/mL
same,MIC,MRSA strains; [39],1 µg/mL
same,MIC,MRSA strains; [40],0.5 µg/mL
same,MIC,MRSA strains; [41],1 µg/mL
same,MIC,MRSA strains; [42],2 µg/mL
same,MIC,MRSA strains; [43],1 µg/mL
same,MIC,MRSA strains; [44],2 µg/mL
same,MIC,MRSA strains; [45],0.5 µg/mL
same,MIC,MRSA strains; [46],0.125 µg/mL
same,MIC,MRSA strains; [47],2 µg/mL
same,MIC,MRSA strains; [48],0.25 µg/mL
same,MIC,MRSA strains; [49],2 µg/mL
same,MIC,MRSA strains; [50],0.5 µg/mL
same,MIC,MRSA strains; [51],1 µg/mL
same,MIC,MRSA strains; [52],2 µg/mL
same,MIC,MRSA strains; [53],4 µg/mL
same,MIC,MRSA strains; [54],0.5 µg/mL
"CC1(C)SC2C(NC(=O)C(N)c3ccccc3)C(=O)N2C1C(=O)O (stereo not drawn) [ABPC, α-aminobenzylpenicillin]",MIC,VRSA strains; read-out: MICs 50%,32 µg/mL
same,MIC,VRSA strains; read-out: MICs 90%,64 µg/mL
same,MICs Range,VRSA strains,16 to 64 mg/L
same,MIC,Staph. aureus 29213; [1],0.5 µg/mL
same,MIC,Staph. aureus 29213; [2],0.25 µg/mL
same,MIC,MRSA strains; [3],< 128 µg/mL
same,MIC,MRSA strains; [4],16 µg/mL
same,MIC,MRSA strains; [5],64 µg/mL
same,MIC,MRSA strains; [6],32 µg/mL
same,MIC,MRSA strains; [7],32 µg/mL
same,MIC,MRSA strains; [8],64 µg/mL
same,MIC,MRSA strains; [9],16 µg/mL
same,MIC,MRSA strains; [10],64 µg/mL
same,MIC,MRSA strains; [11],16 µg/mL
same,MIC,MRSA strains; [12],64 µg/mL
same,MIC,MRSA strains; [13],16 µg/mL
same,MIC,MRSA strains; [14],16 µg/mL
same,MIC,MRSA strains; [15],32 µg/mL
same,MIC,MRSA strains; [16],64 µg/mL
same,MIC,MRSA strains; [17],32 µg/mL
same,MIC,MRSA strains; [18],16 µg/mL
same,MIC,MRSA strains; [19],32 µg/mL
same,MIC,MRSA strains; [20],32 µg/mL
same,MIC,MRSA strains; [21],128 µg/mL
same,MIC,MRSA strains; [22],16 µg/mL
same,MIC,MRSA strains; [23],64 µg/mL
same,MIC,MRSA strains; [24],32 µg/mL
same,MIC,MRSA strains; [25],16 µg/mL
same,MIC,MRSA strains; [26],16 µg/mL
same,MIC,MRSA strains; [27],64 µg/mL
same,MIC,MRSA strains; [28],64 µg/mL
same,MIC,MRSA strains; [29],32 µg/mL
same,MIC,MRSA strains; [30],16 µg/mL
same,MIC,MRSA strains; [31],32 µg/mL
same,MIC,MRSA strains; [32],32 µg/mL
same,MIC,MRSA strains; [33],16 µg/mL
same,MIC,MRSA strains; [34],1 µg/mL
same,MIC,MRSA strains; [35],0.5 µg/mL
same,MIC,MRSA strains; [36],0.5 µg/mL
same,MIC,MRSA strains; [37],16 µg/mL
same,MIC,MRSA strains; [38],16 µg/mL
same,MIC,MRSA strains; [39],64 µg/mL
same,MIC,MRSA strains; [40],16 µg/mL
same,MIC,MRSA strains; [41],16 µg/mL
same,MIC,MRSA strains; [42],16 µg/mL
same,MIC,MRSA strains; [43],32 µg/mL
same,MIC,MRSA strains; [44],16 µg/mL
same,MIC,MRSA strains; [45],32 µg/mL
same,MIC,MRSA strains; [46],16 µg/mL
same,MIC,MRSA strains; [47],64 µg/mL
same,MIC,MRSA strains; [48],8 µg/mL
same,MIC,MRSA strains; [49],16 µg/mL
same,MIC,MRSA strains; [50],32 µg/mL
same,MIC,MRSA strains; [51],32 µg/mL
same,MIC,MRSA strains; [52],32 µg/mL
same,MIC,MRSA strains; [53],32 µg/mL
same,MIC,MRSA strains; [54],8 µg/mL
"Cc1onc(-c2ccccc2)c1C(=O)N[C@@H]1C(=O)N2[C@@H]1SC(C)(C)[C@@H]2C(=O)O [MPIPC, oxacillin]",MIC Values,"Staph. aureus 29213; strain ATCC 29213, control sample (Ex. 26)",0.25 µg/mL
same,MIC Values,"Staph. aureus 29213; strain ATCC29213, control sample (Ex. 37)",0.25 µg/mL
same,MIC Values,MRSA strains; strain 85/2082,64 µg/mL
same,MIC Values,MRSA strains; strain HIP 6297,64 µg/mL
same,MIC Values,MRSA strains; strain JSCC 563,2 µg/mL
same,MIC Values,MRSA strains; strain JSCC 581 (lacks the mecA gene),1 µg/mL
same,MIC Values,MRSA strains; strain JSCC 590 (lacks the mecA gene),1 µg/mL
same,MIC Values,MRSA strains; strain JSCC 601,64 µg/mL
same,MIC Values,MRSA strains; strain N315,16 µg/mL
